Source: patent publication US8871713B2, “Formulations of growth hormone releasing factor (GRF) molecules with improved stability” (Theratechnologies Inc., priority 2013, dated 2014)
Entries after “also recorded” stand apart in the source; their conditions may differ. *1 amine or outer side, *2 acyl side, *3 side chain or, on linkers, in order; H or OH if unused. [ ]: non-standard residue; d: D form. The star is where a group is joined. βAsp = O=C(O)[C@H](CC(=O)[*:2])N[*:1]; Hexenoyl(3E) = CC/C=C/CC(=O)*

Experiments:
GH secretion = test: GH response in female Sprague-Dawley rats (plasma GH ELISA); format: in vivo, rat; settings: for GH secretion in rats (in words) / AUC(0-60min) of GH / TMAX of GH / AUC(0-60 min) of GH, fold lower than TH9507 / Cmax of GH, fold lower than TH9507: female rats; for GH secretion in rats (in words) / AUC(0-60 min) of GH, fold lower than TH9507 / Cmax of GH, fold lower than TH9507: 10 μg/rat; for AUC(0-60min) of GH / TMAX of GH: 10 μg/rat subcutaneous, 5% mannitol
Procedure: The reporter gene assay was performed on baby hamster kidney (BHK) cells stably expressing the human GRF receptor and a cAMP-inducible alkaline phosphatase reporter gene; the peptides were tested at concentrations from 1 pM to 10 μM. Acute GH response was measured in blood samples obtained from female rats that were injected with 10 μg/rat peptides in 5% mannitol.
Sprague-Dawley rats (female, 250-300 g) were obtained from Charles River Inc. The animals were kept in groups of 4 rats per cage and were maintained on standard laboratory chow in 12:12 light:dark cycle.
On the day of the experiment, the animals were anesthetized with 2.5% isoflurane. A mid-section opening was made in the neck to expose the carotid artery. The carotid artery was cannulated with polypropylene tube (PE-50) for blood withdrawal. The rats were subcutaneously injected with the peptides (10 μg/rat) dissolved in formulation 5 (20 mM Sodium Acetate, 5% D-mannitol pH 5 (adjusted with AcOH). Blood samples (400 μL) were collected at pre-dose and at 5, 10, 15, 30 and 60 minutes after the injection into microtainer tubes containing K3EDTA and 25 μl of acidified Hank's buffered salt solution (AHBSS). The samples were immediately centrifuged in a microfuge for 2 minutes and the plasma was collected into screwcap Eppendorf™ tubes and quickly frozen in liquid nitrogen. The samples were kept at −80° C.
Rat plasma samples were thawed on ice, vortexed briefly to mix the contents and centrifuged at 9,000 RPM for 2 min at 4° C. GH levels were determined using the Rat/Mouse Growth Hormone ELISA kit from Millipore® (Cat. #EZRMGH-45K). Samples were diluted 10-fold with the assay buffer and 10 μl of the diluted samples were added along with 90 μl of assay buffer to the ELISA plate. The remainder of the assay was performed according to the manufacturer's protocol.
The standard curve was plotted using the 4-parameter logistic equation using GraphPad Prism™ software and was used to determine the GH concentration of plasma samples. The data were analyzed using one-way analysis of variance. Bonferroni's test was used to make comparisons among different treatments.

human GRF receptor = biological target: T1, human GRF receptor (Homo sapiens, UniProt Q02643); test: Reporter gene assay in BHK cells (cAMP-inducible alkaline phosphatase); format: cell-based; settings: for Emax / SNR (signal to noise ratio) / EC50: 24 h; for EC50: peptides 10^-5 M to 10^-12 M
T1 construct: expressed in transfected cells
T1 sequence (Q02643 23-423): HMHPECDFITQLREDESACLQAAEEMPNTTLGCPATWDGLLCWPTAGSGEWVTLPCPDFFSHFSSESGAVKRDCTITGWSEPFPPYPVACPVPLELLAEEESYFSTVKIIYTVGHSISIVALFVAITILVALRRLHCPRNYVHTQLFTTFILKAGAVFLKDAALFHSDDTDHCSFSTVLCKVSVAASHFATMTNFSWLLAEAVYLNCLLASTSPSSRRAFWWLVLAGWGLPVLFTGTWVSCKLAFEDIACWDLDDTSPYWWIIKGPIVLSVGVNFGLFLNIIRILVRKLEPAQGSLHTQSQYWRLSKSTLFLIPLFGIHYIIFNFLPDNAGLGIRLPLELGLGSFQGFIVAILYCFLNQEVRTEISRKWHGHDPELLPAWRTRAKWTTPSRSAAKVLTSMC
Procedure: BHK cells stably transfected with the human GRF receptor and an alkaline phosphatase reporter gene were plated in 96-well plates at 5×10^4 cells/well and incubated overnight. The next day, cells were washed twice with PBS and maintained for 10-30 min. in assay buffer (DMEM without phenol red, 20 mM HEPES and 1% heat-inactivated fetal bovine serum (FBS)). Peptides from 10^−5 M to 10^−12 M were added to the cells and incubated for 24 h. The alkaline phosphatase level in the culture supernatants were performed using the Alkaline Phosphatase detection kit from Invitrogen® (cat. #T1017).

[1] = Formation of TH0601 from TH05111 or tesamorelin with and without HP-β-CD (FIG. 19); format: physicochemical; settings: 8 mg/mL peptide, 10% HP-β-CD vs 5% mannitol, pH 6
Procedure: Isomerization of Asp^8 in the structure of TH05111 leads to formation of the tesamorelin degradant TH0601, which makes it possible to monitor degradation by using the same chromatographic conditions as for tesamorelin.
The comparison of the kinetics of TH0601 formation in the solutions containing 8 mg/mL of TH05111 or tesamorelin with and without HP-β-CD is shown in FIG. 19.

EC50 fold higher than TH9507 (human GRF receptor) [fold] | Emax (human GRF receptor) [%] | SNR (signal to noise ratio) (human GRF receptor) | Isomerization of the Asp^8 residue in the presence of HP-β-CD [1] | EC50 (human GRF receptor) [nM] | Compound | GH secretion in rats (in words) (GH secretion) | AUC(0-60min) of GH (GH secretion) [ng·min/mL] | TMAX of GH (GH secretion) [min] | In vitro potency compared to TH9507 (in words) (human GRF receptor) | AUC(0-60 min) of GH, fold lower than TH9507 (GH secretion) [fold] | Cmax of GH, fold lower than TH9507 (GH secretion) [fold] | GH-releasing activity in vivo compared to parent molecule (GH secretion; relative to tesamorelin, FIG. 1) [%]
 | 100 ± 11.3 | 22.3 |  |  | CC/C=C/CC(=O)N[C@@H](Cc1ccc(O)cc1)C(=O)N[C@@H](C)C(=O)N[C@@H](CC(=O)O)C(=O)N[C@@H](C)C(=O)N[C@H](C(=O)N[C@@H](Cc1ccccc1)C(=O)N[C@H](C(=O)N[C@@H](CC(N)=O)C(=O)N[C@@H](CO)C(=O)N[C@@H](Cc1ccc(O)cc1)C(=O)N[C@@H](CCCNC(=N)N)C(=O)N[C@@H](CCCCN)C(=O)N[C@H](C(=O)N[C@@H](CC(C)C)C(=O)NCC(=O)N[C@@H](CCC(N)=O)C(=O)N[C@@H](CC(C)C)C(=O)N[C@@H](CO)C(=O)N[C@@H](C)C(=O)N[C@@H](CCCNC(=N)N)C(=O)N[C@@H](CCCCN)C(=O)N[C@@H](CC(C)C)C(=O)N[C@@H](CC(C)C)C(=O)N[C@@H](CCC(N)=O)C(=O)N[C@@H](CC(=O)O)C(=O)N[C@H](C(=O)N[C@@H](CCSC)C(=O)N[C@@H](CO)C(=O)N[C@@H](CCCNC(=N)N)C(=O)N[C@@H](CCC(N)=O)C(=O)N[C@@H](CCC(N)=O)C(=O)NCC(=O)N[C@@H](CCC(=O)O)C(=O)N[C@@H](CO)C(=O)N[C@@H](CC(N)=O)C(=O)N[C@@H](CCC(N)=O)C(=O)N[C@@H](CCC(=O)O)C(=O)N[C@@H](CCCNC(=N)N)C(=O)NCC(=O)N[C@@H](C)C(=O)N[C@@H](CCCNC(=N)N)C(=O)N[C@@H](C)C(=O)N[C@@H](CCCNC(=N)N)C(=O)N[C@@H](CC(C)C)C(N)=O)[C@@H](C)CC)C(C)C)[C@@H](C)O)[C@@H](C)CC [TH9507, [trans-3-hexenoyl]hGRF (1-44) amide] |  | 18953 ± 6317 | 10 |  |  |  | 
 | 114 ± 17 | 25.3 | facilitated | 0.08 ± 0.02 | {Hexenoyl(3E)}-YADAIFTDSYRKVLGQLSARKLLQDIMSRQQGESNQERGARARL-NH2 [TH05111, Asp^8 tesamorelin] |  | 6540 ± 2647 | 5 | comparable to TH9507; also recorded: equipotent | 2.9 | 2.2 | ~30
500 | 120 ± 23.5 | 26.9 |  | 30 ± 30.4 | {Hexenoyl(3E)}-YADAIFT[βAsp]SYRKVLGQLSARKLLQDIMSRQQGESNQERGARARL-NH2 [TH0601, β-Asp^8 tesamorelin] | biologically inactive | 1533 ± 734 | 5 |  | 12.4 | 14.0 | 

Further lines, the compound ahead of its results:

Compound | EC50 fold higher than TH9507 (human GRF receptor) [fold] | Emax (human GRF receptor) [%] | SNR (signal to noise ratio) (human GRF receptor) | Isomerization of the Asp^8 residue in the presence of HP-β-CD [1] | EC50 (human GRF receptor) [nM] | GH secretion in rats (in words) (GH secretion) | AUC(0-60min) of GH (GH secretion) [ng·min/mL] | TMAX of GH (GH secretion) [min] | In vitro potency compared to TH9507 (in words) (human GRF receptor) | AUC(0-60 min) of GH, fold lower than TH9507 (GH secretion) [fold] | Cmax of GH, fold lower than TH9507 (GH secretion) [fold] | GH-releasing activity in vivo compared to parent molecule (GH secretion; relative to tesamorelin, FIG. 1) [%]
CC/C=C/CC(=O)N[C@@H](Cc1ccc(O)cc1)C(=O)N[C@@H](C)C(=O)N[C@@H](CC(=O)O)C(=O)N[C@@H](C)C(=O)N[C@H](C(=O)N[C@@H](Cc1ccccc1)C(=O)N[C@H](C(=O)N[C@@H](CC(N)=O)C(=O)N[C@@H](CO)C(=O)N[C@@H](Cc1ccc(O)cc1)C(=O)N[C@@H](CCCNC(=N)N)C(=O)N[C@@H](CCCCN)C(=O)N[C@H](C(=O)N[C@@H](CC(C)C)C(=O)NCC(=O)N[C@@H](CCC(N)=O)C(=O)N[C@@H](CC(C)C)C(=O)N[C@@H](CO)C(=O)N[C@@H](C)C(=O)N[C@@H](CCCNC(=N)N)C(=O)N[C@@H](CCCCN)C(=O)N[C@@H](CC(C)C)C(=O)N[C@@H](CC(C)C)C(=O)N[C@@H](CCC(N)=O)C(=O)N[C@@H](CC(=O)O)C(=O)N[C@H](C(=O)N[C@@H](CC[S+](C)[O-])C(=O)N[C@@H](CO)C(=O)N[C@@H](CCCNC(=N)N)C(=O)N[C@@H](CCC(N)=O)C(=O)N[C@@H](CCC(N)=O)C(=O)NCC(=O)N[C@@H](CCC(=O)O)C(=O)N[C@@H](CO)C(=O)N[C@@H](CC(N)=O)C(=O)N[C@@H](CCC(N)=O)C(=O)N[C@@H](CCC(=O)O)C(=O)N[C@@H](CCCNC(=N)N)C(=O)NCC(=O)N[C@@H](C)C(=O)N[C@@H](CCCNC(=N)N)C(=O)N[C@@H](C)C(=O)N[C@@H](CCCNC(=N)N)C(=O)N[C@@H](CC(C)C)C(N)=O)[C@@H](C)CC)C(C)C)[C@@H](C)O)[C@@H](C)CC (some centres unmarked) [TH0286, N-Hex-hGRF[1-44]Met[O]27 amide] |  |  |  |  |  | not significantly different | 14751 ± 5745 | 10 | comparable to TH9507 |  |  | 
CC/C=C/CC(=O)N[C@@H](Cc1ccc(O)cc1)C(=O)N[C@@H](C)C(=O)N[C@@H](CC(=O)N[C@@H](C)C(=O)N[C@H](C(=O)N[C@@H](Cc1ccccc1)C(=O)N[C@H](C(=O)N[C@@H](CC(N)=O)C(=O)N[C@@H](CO)C(=O)N[C@@H](Cc1ccc(O)cc1)C(=O)N[C@@H](CCCNC(=N)N)C(=O)N[C@@H](CCCCN)C(=O)N[C@H](C(=O)N[C@@H](CC(C)C)C(=O)NCC(=O)N[C@@H](CCC(N)=O)C(=O)N[C@@H](CC(C)C)C(=O)N[C@@H](CO)C(=O)N[C@@H](C)C(=O)N[C@@H](CCCNC(=N)N)C(=O)N[C@@H](CCCCN)C(=O)N[C@@H](CC(C)C)C(=O)N[C@@H](CC(C)C)C(=O)N[C@@H](CCC(N)=O)C(=O)N[C@@H](CC(=O)O)C(=O)N[C@H](C(=O)N[C@@H](CCSC)C(=O)N[C@@H](CO)C(=O)N[C@@H](CCCNC(=N)N)C(=O)N[C@@H](CCC(N)=O)C(=O)N[C@@H](CCC(N)=O)C(=O)NCC(=O)N[C@@H](CCC(=O)O)C(=O)N[C@@H](CO)C(=O)N[C@@H](CC(N)=O)C(=O)N[C@@H](CCC(N)=O)C(=O)N[C@@H](CCC(=O)O)C(=O)N[C@@H](CCCNC(=N)N)C(=O)NCC(=O)N[C@@H](C)C(=O)N[C@@H](CCCNC(=N)N)C(=O)N[C@@H](C)C(=O)N[C@@H](CCCNC(=N)N)C(=O)N[C@@H](CC(C)C)C(N)=O)[C@@H](C)CC)C(C)C)[C@@H](C)O)[C@@H](C)CC)C(=O)O [TH0677, β-Asp^3 tesamorelin] | 71 | 116 ± 25.8 | 25.9 |  |  | did not produce GH; also recorded: did not stimulate GH secretion; also recorded: biologically inactive |  |  |  |  |  | 
CC/C=C/CC(=O)N[C@@H](Cc1ccc(O)cc1)C(=O)N[C@@H](C)C(=O)N[C@H]1CC(=O)N([C@@H](C)C(=O)N[C@H](C(=O)N[C@@H](Cc2ccccc2)C(=O)N[C@H](C(=O)N[C@@H](CC(N)=O)C(=O)N[C@@H](CO)C(=O)N[C@@H](Cc2ccc(O)cc2)C(=O)N[C@@H](CCCNC(=N)N)C(=O)N[C@@H](CCCCN)C(=O)N[C@H](C(=O)N[C@@H](CC(C)C)C(=O)NCC(=O)N[C@@H](CCC(N)=O)C(=O)N[C@@H](CC(C)C)C(=O)N[C@@H](CO)C(=O)N[C@@H](C)C(=O)N[C@@H](CCCNC(=N)N)C(=O)N[C@@H](CCCCN)C(=O)N[C@@H](CC(C)C)C(=O)N[C@@H](CC(C)C)C(=O)N[C@@H](CCC(N)=O)C(=O)N[C@@H](CC(=O)O)C(=O)N[C@H](C(=O)N[C@@H](CCSC)C(=O)N[C@@H](CO)C(=O)N[C@@H](CCCNC(=N)N)C(=O)N[C@@H](CCC(N)=O)C(=O)N[C@@H](CCC(N)=O)C(=O)NCC(=O)N[C@@H](CCC(=O)O)C(=O)N[C@@H](CO)C(=O)N[C@@H](CC(N)=O)C(=O)N[C@@H](CCC(N)=O)C(=O)N[C@@H](CCC(=O)O)C(=O)N[C@@H](CCCNC(=N)N)C(=O)NCC(=O)N[C@@H](C)C(=O)N[C@@H](CCCNC(=N)N)C(=O)N[C@@H](C)C(=O)N[C@@H](CCCNC(=N)N)C(=O)N[C@@H](CC(C)C)C(N)=O)[C@@H](C)CC)C(C)C)[C@@H](C)O)[C@@H](C)CC)C1=O [TH1063, Asu^3 tesamorelin] |  | 95.7 ± 8.1 |  |  |  |  |  |  |  |  |  | 
